Test results published in the supplement of paper PMC10307832.

What was measured:
Experiment in all cases: relative viability (nuclei count vs DMSO), 5 days (fraction); higher = more cells survive
QS11 + Pemetrexed = compound: C1CC2=C(C1)C=C(C=C2)OC3=NC(=C4C(=N3)N(C=N4)CC5=CC=C(C=C5)C6=CC=CC=C6)N[C@@H](CC7=CC=CC=C7)CO [QS11] + Nc1nc2[nH]cc(CCc3ccc(C(=O)N[C@@H](CCC(=O)O)C(=O)O)cc3)c2c(=O)[nH]1 [Pemetrexed] (partner 0.2 µM)
Method in brief: (§1)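 Relative viability was taken as the ratio of nuclei in treated wells to nuclei in vehicle wells. Lung cancer cell lines in 1536-well plates received compounds by pin tool one day after seeding, either one drug alone or a fixed anchor-drug dose plus five library-drug doses (not always all listed) in √10 steps. Nuclei were counted on 4× images after 5 days of treatment, and values are medians of duplicate plates.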

AZ628 + Bortezomib = compound: CC1=C(C=C(C=C1)NC(=O)C2=CC(=CC=C2)C(C)(C)C#N)NC3=CC4=C(C=C3)N=CN(C4=O)C [AZ628] + CC(C)C[C@H](NC(=O)[C@H](Cc1ccccc1)NC(=O)c1cnccn1)B(O)O [Bortezomib] (partner 0.002 µM)
Method in brief: as §1

AZ628 + Luminespib = compound: CC1=C(C=C(C=C1)NC(=O)C2=CC(=CC=C2)C(C)(C)C#N)NC3=CC4=C(C=C3)N=CN(C4=O)C [AZ628] + CCNC(=O)c1noc(-c2cc(C(C)C)c(O)cc2O)c1-c1ccc(CN2CCOCC2)cc1 [Luminespib] (partner 0.01 µM)
Method in brief: as §1

[1] = compound: C[As](C)SC[C@H](NC(=O)CC[C@H](N)C(=O)O)C(=O)NCC(=O)O [Darinaparsin] + CCNC(=O)c1noc(-c2cc(C(C)C)c(O)cc2O)c1-c1ccc(CN2CCOCC2)cc1 [Luminespib] (partner 0.01 µM)
Method in brief: as §1

Cell Line	relative viability (QS11 + Pemetrexed; first compound 0.08 µM)	relative viability (QS11 + Pemetrexed; first compound 0.253 µM)	relative viability (QS11 + Pemetrexed; first compound 0.8 µM)	relative viability (QS11 + Pemetrexed; first compound 2.53 µM)	relative viability (QS11 + Pemetrexed; first compound 8 µM)	relative viability (AZ628 + Bortezomib; first compound 0.08 µM)	relative viability (AZ628 + Bortezomib; first compound 0.253 µM)	relative viability (AZ628 + Bortezomib; first compound 0.8 µM)	relative viability (AZ628 + Bortezomib; first compound 2.53 µM)	relative viability (AZ628 + Bortezomib; first compound 8 µM)	relative viability (AZ628 + Luminespib; first compound 0.08 µM)	relative viability (AZ628 + Luminespib; first compound 0.253 µM)	relative viability (AZ628 + Luminespib; first compound 0.8 µM)	relative viability (AZ628 + Luminespib; first compound 2.53 µM)	relative viability (AZ628 + Luminespib; first compound 8 µM)	relative viability ([1]; first compound 0.08 µM)	relative viability ([1]; first compound 0.8 µM)	relative viability ([1]; first compound 2.53 µM)	relative viability ([1]; first compound 8 µM)
NCI-H1975	0.302	0.279	0.332	0.326	0.307	0.409	0.343	0.303	0.281	0.241	0.23	0.304	0.196	0.316	0.228	0.233	0.221	0.23	0.187
BEN	0.638	0.764	0.911	0.852	0.815	0.882	0.653	0.666	0.813	0.616	0.51	0.251	0.485	0.938	0.221	0.409	0.366	0.511	0.522
NCI-H1437	0.314	0.331	0.301	0.286	0.271	0.488	0.544	0.425	0.486	0.556	1.23	1.06	1.09	1.16	1.14	1.32	1.21	1.08	1.36
NCI-H1734	0.374	0.393	0.393	0.472	0.424	0.969	0.809	0.903	0.756	0.562	0.224	0.19	0.153	0.172	0.142	0.201	0.16	0.2	0.19
NCI-H596	0.456	0.468	0.507	0.528	0.476	1	1.03	1.09	1.09	1.27	0.931	1.11	1.02	0.984	0.829	1.14	1.12	0.951	0.966
LOU-NH91	0.347	0.369	0.351	0.457	0.306	0.481	0.478	0.485	0.466	0.453	0.299	0.396	0.332	0.308	0.293	0.407	0.31	0.306	0.345
NCI-H2342	0.77	0.829	0.809	0.797	0.795						0.763	0.865	0.736	0.821	0.825	0.773	0.8	0.813	0.826
NCI-H522	0.824	1.02	0.878	1	0.884						1.33	1.15	1.16	1.29	0.821	1.1	1.22	1.28	1.15
SK-MES-1	1.08	0.94	0.832	0.977	0.863						0.848	0.72	0.574	0.598	0.386	1.19	0.691	0.88	0.864
UMC-11	0.87	0.89	0.716	0.97	0.993	0.935	0.571	0.694	0.739	0.666	1.16	0.999	0.973	0.98	1.17	1.16	0.994	1.08	1.22
LK-2	0.241	0.318	0.267	0.27	0.284						0.224	0.205	0.206	0.187	0.16	0.175		0.173	0.174
CAL-12T	1.26	1.37	1.05	1.24	1.04	0.948		0.747	0.835	0.779	0.591	0.371	0.376	0.465	0.466	0.182	0.429	0.429	0.761
PC-3 [JPC-3]		0.951	1.08	0.935	1.17	0.778	0.924	0.9	0.801	0.857	0.628	0.67	0.866	0.675	0.71	0.807	0.721	0.698	0.87
NCI-H1651	0.575	0.616	0.582	0.598	0.584	1.03	0.903	0.897	0.953	0.887	0.92	0.825	0.919	0.955	0.61	0.886	0.831	0.926	1.16
NCI-H650	0.834	0.819	0.83	0.841	0.839	1.2	1.05	1.32	0.744	1.02	0.935	0.816	0.909	0.843	0.63	0.81	0.793	0.872	0.831
